One series relates to HCV replicon 1a. Nature of the series: HCV replicon luciferase assay, genotype 1a. The format is cell-based. The settings on record: Hepatitis C virus. Background: A replicon is a self-replicating genome or part of one, used to study replication in cells.
The test system of a further series is HCV. The following applies: cited from earlier work.
Series [1] has as its system genotype 1b (Con-1) HCV replicon. Nature of the series: HCV replicon luciferase assay, genotype 1b (Con-1). The settings on record: genotype 1b HCV replicon, Huh-7 cells, Renilla luciferase, 3 days; for pEC50: read-out: EC50 1b (class); for EC50: read-out: EC50 (uM) 1b. The series is classed as cell-based. The protocol: The cell lines used to evaluate compounds consist of a human hepatocyte derived cell line (Huh-7) that constitutively expresses a genotype 1b (Con-1) HCV replicon or a genotype 1b (Con-1) HCV replicon with an asparagine replacing the cysteine at amino acid 316, or a genotype 2a (JFH-1) replicon, containing a Renilla luciferase reporter gene. These cells were maintained in Dulbecco's modified Eagle medium (DMEM) containing 10% FBS, 100 U/mL penicillin/streptomycin and 1.0 mg/mL G418.
To evaluate compound efficacy, titrated compounds were transferred to sterile 384-well tissue culture treated plates, and the plates were seeded with HCV replicon cells (50 μL at a density of 2.4×10^3 cells/well) in DMEM containing 4% FBS (final DMSO concentration at 0.5%). After 3 days incubation at 37° C., cells were analyzed for Renilla Luciferase activity using the EnduRen substrate (Promega cat #E6485) according to the manufacturer's directions. Briefly, the EnduRen substrate was diluted in DMEM and then added to the plates to a final concentration of 7.5 μM. The plates were incubated for at least 1 h at 37° C. then read on a Viewlux Imager (PerkinElmer) using a luminescence program. The 50% effective concentration (EC50) was calculated using the four-parameter logistic formula noted above.

pEC50: −log10 of the molar value. Where two headings read alike, the source gives them in different places.

In the case of `CNC(=O)c1c(-c2ccc(F)cc2)oc2nc(OCC(F)(F)F)c(-c3cccc(C(=O)NC(C)(C)C#N)c3)cc12` [Compound K9001, 5-(3-((2-cyanopropan-2-yl)carbamoyl)phenyl)-2-(4-fluorophenyl)-N-methyl-6-(2,2,2-trifluoroethoxy)furo[2,3-b]pyridine-3-carboxamide], the pEC50 (commonly the EC50 on a negative log10 scale, so that one unit is a factor of ten) with HCV replicon 1a (read-out: EC50 for 1a instead) was 7.75; in the series on HCV replicon 1a (read-out: EC50 for 1a instead (class)), above 7.00.
For the molecule alpha-interferon and ribavirin, the “sustained efficacy, share of patients” value in the series with HCV (patients) is on record as 40%.
Regarding `CNC(=O)c1c(-c2ccc(F)cc2)oc2nc(CCC(F)(F)F)c(-c3cccc(C(=O)NC(C)(C#N)C4CC4)c3)cc12` (stereo not drawn) [Compound 11007], in series [1], the pEC50 was above 7.00 and the EC50 (in general, the midpoint of the concentration-response curve) was 0.0027 µM.
With `CNC(=O)c1c(-c2ccc(F)cc2)oc2nc(Cl)c(-c3cccc(C(=O)NC4(C#N)CCCC4)c3)cc12` [Compound 10006], in series [1] (Hepatitis C virus, Huh-7, 72 h), the pEC50 is above 7.00 and the EC50 worked out at 0.076 µM.
`CNC(=O)c1c(-c2ccc(F)cc2)oc2nc(NCC(F)(F)F)c(-c3ccc(F)c(C(=O)NC(C)(C#N)C4CC4)c3)cc12` (stereo not drawn) [Compound 22005]: the pEC50 in series [1] is above 7.00.
Take `CNC(=O)c1c(-c2ccc(F)cc2)oc2nc(CCC(F)(F)F)c(-c3cccc(C(=O)NC(C)(C#N)CF)c3)cc12` (stereo not drawn) [Compound 11012]: the pEC50 in series [1] (Hepatitis C virus, Huh-7, 72 h) is above 7.00.
Consider `CNC(=O)c1c(-c2ccc(F)cc2)oc2nc(Cl)c(-c3cccc(C(=O)NC(C)(C)C#N)c3)cc12` [Compound 10004], for which, in series [1] (Hepatitis C virus, Huh-7, 72 h), the pEC50 was 6.00 to 7.00 and the EC50 worked out at 0.105 µM.
With `CNC(=O)c1c(-c2ccc(F)cc2)oc2nc(CCC(F)(F)F)c(-c3cccc(C(=O)NC(C)(C#N)C4CC4)c3)cc12` (stereo not drawn) [Compound 11005], the pEC50 in series [1] (Hepatitis C virus, Huh-7, 72 h) was above 7.00.
For `CNC(=O)c1c(-c2ccc(F)cc2)oc2nc(NCC(F)(F)F)c(-c3cccc(C(=O)NC(C)(C#N)C4CC4)c3)cc12` (stereo not drawn) [Compound 20006], in series [1] (Hepatitis C virus, Huh-7, 72 h), the pEC50 was above 7.00 and the EC50 turned out to be 0.0031 µM.
In the case of `CNC(=O)c1c(-c2ccc(F)cc2)oc2cc(N(CCO)S(C)(=O)=O)c(C3CC3)cc12` [HCV-796], the hepatic toxicity entry in the series on HCV (extended dosing of the combination regimens) is reported as “hepatic toxicity observed during extended dosing of the combination regimens”. The “HCV RNA levels in patients” value in the series with HCV (patients, single agent or combined with interferon and ribavirin) is reported as “reduce HCV RNA levels in patients”.
Take `CNC(=O)c1c(-c2ccc(F)cc2)oc2nc(Cl)c(-c3ccc(OC)c(C(=O)NC(C)(C)C#N)c3)cc12` [Compound 10001]: in series [1] (Hepatitis C virus, Huh-7, 72 h), the pEC50 was above 7.00 and the concentration giving a half-maximal response (EC50) amounted to 0.0738 µM.
For `CNC(=O)c1c(-c2ccc(F)cc2)oc2nc(NCC(F)(F)F)c(-c3ccc(OC)c(C(=O)NC4(C#N)CC4)c3)cc12` [Compound K5002], the pEC50 in series [1] (Hepatitis C virus, Huh-7, 72 h) is above 7.00.
`CNC(=O)c1c(-c2ccc(F)cc2)oc2nc(CCC(F)(F)F)c(-c3cc(C(=O)NC(C)(C)C#N)ccc3F)cc12` [Compound 15002]: in series [1] (Hepatitis C virus, Huh-7, 72 h), the pEC50 was above 7.00 and the EC50 was found to be 0.0042 µM.
